Test results taken from US6914045B2, “Glycopeptide antibiotics” (Wyeth Holdings Corporation, priority 2001, dated 2005).
In brackets after ≈: the same amount, converted by molar mass.

Assays:
Assay in all cases: in vitro antibacterial evaluation, MIC by broth dilution
Format in all cases: cell-based
Enterococcus sp. = conditions: broth dilution, 18 hours at 35° C.; for MIC Enterococcus faecalis (ATCC 29212): strain ATCC 29212; for MIC Enterococcus faecalis (GC 2242): strain GC 2242; for MIC Enterococcus faecium (GC 2243): strain GC 2243; for MIC Enterococcus faecalis (GC 2691): strain GC 2691; for MIC Enterococcus faecalis (GC 3059): strain GC 3059; for MIC Enterococcus faecalis (GC 4552): strain GC 4552; for MIC Enterococcus faecalis (GC 4553): strain GC 4553; for MIC Enterococcus faecalis (GC 4554): strain GC 4554; for MIC Enterococcus faecium (GC 4556): strain GC 4556; for MIC Enterococcus faecium (GC 4557): strain GC 4557; for MIC Enterococcus avium (GC 4558): strain GC 4558; for MIC Enterococcus faecalis (GC 6189): strain GC 6189
In short: (§1)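 Following National Committee for Clinical Laboratory Standards recommendations (M7-A2), susceptibility was measured by dilution in Muller-Hinton II […]. Bacteria were seeded at 5×10^5 CFU/mL against compound concentrations from 64 down to 0.06 μg/mL.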

Escherichia coli = tested on: Escherichia coli
In short: as §1

Staphylococcus sp. = conditions: broth dilution, 18 hours at 35° C.; for MIC Staphylococcus aureus (GC 1131): strain GC 1131
In short: as §1

Streptococcus sp. = conditions: broth dilution, 18 hours at 35° C.; for MIC Streptococcus pneumoniae (ATCC 6301): strain ATCC 6301; for MIC Streptococcus pneumoniae (GC 1894): strain GC 1894; for MIC Streptococcus pyogenes (GC 4563): strain GC 4563; for MIC Streptococcus agalactiae (GC 4564): strain GC 4564; for MIC Streptococcus pneumoniae (GC 4565): strain GC 4565
In short: as §1

MIC Enterococcus faecalis (ATCC 29212) (Enterococcus sp.; inoculum 5×10^5 CFU/mL): 4 µg/mL (≈ 2.68 µM)
MIC Enterococcus faecalis (GC 2242) (Enterococcus sp.; inoculum 5×10^5 CFU/mL): 2 µg/mL (≈ 1.34 µM)
MIC Enterococcus faecium (GC 2243) (Enterococcus sp.; inoculum 5×10^5 CFU/mL): 4 µg/mL (≈ 2.68 µM)
MIC Enterococcus faecalis (GC 2691) (Enterococcus sp.; inoculum 5×10^5 CFU/mL): 1 µg/mL (≈ 0.669 µM)
MIC Enterococcus faecalis (GC 3059) (Enterococcus sp.; inoculum 5×10^5 CFU/mL): 16 µg/mL (≈ 10.7 µM)
MIC Enterococcus faecalis (GC 4552) (Enterococcus sp.; inoculum 5×10^5 CFU/mL): 4 µg/mL (≈ 2.68 µM)
MIC Enterococcus faecalis (GC 4553) (Enterococcus sp.; inoculum 5×10^5 CFU/mL): 2 µg/mL (≈ 1.34 µM)
MIC Enterococcus faecalis (GC 4554) (Enterococcus sp.; inoculum 5×10^5 CFU/mL): 2 µg/mL (≈ 1.34 µM)
MIC Enterococcus faecium (GC 4556) (Enterococcus sp.; inoculum 5×10^5 CFU/mL): 4 µg/mL (≈ 2.68 µM)
MIC Enterococcus faecium (GC 4557) (Enterococcus sp.; inoculum 5×10^5 CFU/mL): 8 µg/mL (≈ 5.36 µM)
MIC Enterococcus avium (GC 4558) (Enterococcus sp.; inoculum 5×10^5 CFU/mL): 4 µg/mL (≈ 2.68 µM)
MIC Enterococcus faecalis (GC 6189) (Enterococcus sp.; inoculum 5×10^5 CFU/mL): 0.5 µg/mL (≈ 0.335 µM)
MIC Enterococcus faecalis (ATCC 29212) (Enterococcus sp.): 4 µg/mL (≈ 2.68 µM)
MIC Enterococcus faecalis (GC 2242) (Enterococcus sp.): 2 µg/mL (≈ 1.34 µM)
MIC Enterococcus faecium (GC 2243) (Enterococcus sp.): 4 µg/mL (≈ 2.68 µM)
MIC Enterococcus faecalis (GC 2691) (Enterococcus sp.): 1 µg/mL (≈ 0.669 µM)
MIC Enterococcus faecalis (GC 3059) (Enterococcus sp.): 16 µg/mL (≈ 10.7 µM)
MIC Enterococcus faecalis (GC 4552) (Enterococcus sp.): 4 µg/mL (≈ 2.68 µM)
MIC Enterococcus faecalis (GC 4553) (Enterococcus sp.): 2 µg/mL (≈ 1.34 µM)
MIC Enterococcus faecalis (GC 4554) (Enterococcus sp.): 2 µg/mL (≈ 1.34 µM)
MIC Enterococcus faecium (GC 4556) (Enterococcus sp.): 4 µg/mL (≈ 2.68 µM)
MIC Enterococcus faecium (GC 4557) (Enterococcus sp.): 8 µg/mL (≈ 5.36 µM)
MIC Enterococcus avium (GC 4558) (Enterococcus sp.): 4 µg/mL (≈ 2.68 µM)
MIC Enterococcus faecalis (GC 6189) (Enterococcus sp.): 0.5 µg/mL (≈ 0.335 µM)
MIC Escherichia coli (ATCC 25922) (Escherichia coli; strain ATCC 25922, 18 hours at 35° C.): >64 µg/mL
MIC Escherichia coli (GC 4559) (Escherichia coli; strain GC 4559, 18 hours at 35° C.): >64 µg/mL
MIC Escherichia coli (GC 4560) (Escherichia coli; strain GC 4560, 18 hours at 35° C.): 16 µg/mL (≈ 10.7 µM)
MIC Staphylococcus aureus (GC 1131) (Staphylococcus sp.; inoculum 5×10^5 CFU/mL): 4 µg/mL (≈ 2.68 µM)
MIC Staphylococcus aureus (ATCC 29213) (Staphylococcus sp.; strain ATCC 29213): 16 µg/mL (≈ 10.7 µM)
MIC Staphylococcus aureus (GC 1131) (Staphylococcus sp.): 4 µg/mL (≈ 2.68 µM)
MIC Staphylococcus aureus (GC 3051) (Staphylococcus sp.; strain GC 3051): 8 µg/mL (≈ 5.36 µM)
MIC Staphylococcus aureus (GC 3053) (Staphylococcus sp.; strain GC 3053): 4 µg/mL (≈ 2.68 µM)
MIC Staphylococcus aureus (GC 4541) (Staphylococcus sp.; strain GC 4541): 8 µg/mL (≈ 5.36 µM)
MIC Staphylococcus aureus (GC 4542) (Staphylococcus sp.; strain GC 4542): 8 µg/mL (≈ 5.36 µM)
MIC Staphylococcus aureus (GC 4544) (Staphylococcus sp.; strain GC 4544): 8 µg/mL (≈ 5.36 µM)
MIC Staphylococcus aureus (GC 4545) (Staphylococcus sp.; strain GC 4545): 4 µg/mL (≈ 2.68 µM)
MIC Staphylococcus aureus-SMITH (GC 4543) (Staphylococcus sp.; strain GC 4543): 4 µg/mL (≈ 2.68 µM)
MIC Coagulase Negative Staphylococcus (GC 4547) (Staphylococcus sp.; strain GC 4547): 32 µg/mL (≈ 21.4 µM)
MIC Coagulase Negative Staphylococcus (GC 4548) (Staphylococcus sp.; strain GC 4548): 0.5 µg/mL (≈ 0.335 µM)
MIC Coagulase Negative Staphylococcus (GC 4549) (Staphylococcus sp.; strain GC 4549): 2 µg/mL (≈ 1.34 µM)
MIC Coagulase Negative Staphylococcus (GC 4551) (Staphylococcus sp.; strain GC 4551): 4 µg/mL (≈ 2.68 µM)
MIC Coagulase Negative Staphylococcus (GC 6257) (Staphylococcus sp.; strain GC 6257): 2 µg/mL (≈ 1.34 µM)
MIC Streptococcus pneumoniae (ATCC 6301) (Streptococcus sp.; inoculum 5×10^5 CFU/mL): <0.06 µg/mL
MIC Streptococcus pneumoniae (GC 1894) (Streptococcus sp.; inoculum 5×10^5 CFU/mL): <0.06 µg/mL
MIC Streptococcus pyogenes (GC 4563) (Streptococcus sp.; inoculum 5×10^5 CFU/mL): 0.12 µg/mL (≈ 0.0803 µM)
MIC Streptococcus agalactiae (GC 4564) (Streptococcus sp.; inoculum 5×10^5 CFU/mL): <0.06 µg/mL
MIC Streptococcus pneumoniae (GC 4565) (Streptococcus sp.; inoculum 5×10^5 CFU/mL): <0.06 µg/mL
MIC Streptococcus pneumoniae (ATCC 6301) (Streptococcus sp.): <0.06 µg/mL
MIC Streptococcus pneumoniae (GC 1894) (Streptococcus sp.): <0.06 µg/mL
MIC Streptococcus pyogenes (GC 4563) (Streptococcus sp.): 0.12 µg/mL (≈ 0.0803 µM)
MIC Streptococcus agalactiae (GC 4564) (Streptococcus sp.): <0.06 µg/mL
MIC Streptococcus pneumoniae (GC 4565) (Streptococcus sp.): <0.06 µg/mL
SMILES: CC(c1ccccc1)C1NC(=O)CNC(=O)C(CO)NC(=O)C(C(O)C2CNC(=N)N2C2OC(CO)C(O)C(O)C2O)NC(=O)C(C(O)C2CNC(=N)N2)NC(=O)C(Cc2ccc(OC3OC(CO)C(OC4OC5COC(c6ccc(-c7ccc(Cl)cc7)cc6)OC5C(O)C4O)C(O)C3O)cc2)NC1=O (stereo not drawn) [Example 178, Cyclo[glycyl-β-methylphenylalanyl-O-[4-O-[4,6-O-[4-(4-chlorophenyl)benzylidene]hexopyranosyl]hexopyranosyl]tyrosyl-3-(2-iminoimidazolidin-4-yl)seryl-3-(3-hexopyranosyl-2-iminoimidazolidin-4-yl)serylseryl]]
MIC Staphylococcus haemolyticus (GC 4546) (Staphylococcus sp.; strain GC 4546): 8 µg/mL (≈ 5.36 µM)
